Drawing on the supplement of paper PMC10307832, this text covers relative viability for one cell line.

Common to all, as to assay: relative viability (nuclei count vs DMSO), 5 days (fraction); higher = more cells survive
Compound in one experiment: C#Cc1cccc(Nc2ncnc3cc(OC)c(OCCCCCCC(=O)NO)cc23)c1 [CUDC-101]
In a few lines: (§1)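 Viability is treated-well nuclei as a fraction of vehicle-well nuclei, reported as the median across plates. Before counting, lung cancer cell lines were kept overnight at 37 °C in 1536-well plates, pinned with five √10-spaced library-drug doses on vehicle-anchored plates, and left 5 days without medium change, then fixed, permeabilised and Hoechst-stained in one step, imaged at 4× and counted by MetaXpress. A plate passed only if control CV was below 25% and at least one doubling occurred.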

Compound in experiment [1]: C1=CC=C2C(=C1)N=C(S2)C(C#N)C3=NC(=NC=C3)NCCC4=CN=CC=C4
In a few lines:
as §1

Compound in another experiment: COc1cc2/c(=N/c3ccc(Br)cc3F)nc[nH]c2cc1OCC1CCN(C)CC1 [Vandetanib]
The method, boiled down: as §1

Take UMC-11: the relative viability with CUDC-101 (0.01 µM) was 1.03; with CUDC-101 (0.03162 µM), 0.957; with CUDC-101 (0.1 µM) it was 0.927; with CUDC-101 (0.3162 µM), 0.705; in the experiment with CUDC-101 (1 µM) it was 0.31; in experiment [1] (0.005 µM) it was 0.884. Also, the relative viability stood at 1.01 in experiment [1] (0.01581 µM); 0.96 in experiment [1] (0.05 µM); 1.16 in experiment [1] (0.1581 µM); 0.967 in experiment [1] (0.5 µM); 0.94 in the experiment with Vandetanib (0.02 µM); 0.901 with Vandetanib (0.06325 µM). Also, the relative viability came out at 0.9 with Vandetanib (0.2 µM), 0.91 with Vandetanib (0.6325 µM) and 0.964 in the experiment with Vandetanib (2 µM).
